Values after ≈ are worked out from the molar mass of the structure shown. Like-named read-outs stand apart in the source and are kept apart here. Marks after values point to notes of the source that are not given here. Where a SMILES comes first, the peptide text is derived from it. Bridges are numbered along the chain shown (N, C = ends). Where no end group is shown, it is not given here. The star is where a group is joined. Acm = CC(=O)NC*
Columns and labels:
Type in all cases: cell-based
P. aeruginosa 27853 = system: P. aeruginosa 27853
Experimental: (§1) The minimal inhibitory concentration (MIC) for the peptides was determined in sterile microtiter plates in a final volume of 200 μL using Trypticase Soy Broth (TSB; Difco Laboratories, Detroit, Mich.) as the growth medium. Serial two-fold dilutions of the peptide stock were made in the plate wells such that concentrations ranged from 512 to 2 μg/mL in a volume of 100 μL. Each well was then inoculated with 100 μL of a dilute suspension of bacteria in TSB yielding a final concentration of 1×10^4 bacteria/mL. The final peptide concentrations ranged from […]. The assay plates were incubated at 37° C. for 24 hours inside a Bioscreen C microtitre plate reader (Thermo Labsystems; Vantaa, Finland). Optical Density (OD) of the medium at 600 nm was recorded every 20 minutes to monitor cell growth. The lowest concentration of peptide preventing bacterial growth during the 24 hr period was defined as the MIC.

K. pneumoniae 700603 = system: K. pneumoniae 700603
Experimental: as §1

E. coli ATCC 25922 = conditions: for MIC E. coli 25922 Expt. #2 / MIC E. coli 25922 Expt. #1: ATCC 25922; for MIC: ATCC 25922, 24 h
Experimental: as §1

S. aureus 29213 = system: S. aureus 29213
Experimental: as §1

E. coli ATCC #25922 = conditions: ATCC #25922, 4 h
Experimental: Antimicrobial activity of the peptide immobilized on polymer substrates was evaluated in a Shake Flask Test. Test substance (polymer with immobilized peptide) or control substance (polymer alone) (50 mg suspended in […] phosphate buffer (pH 7)) was added to a sterile culture plate well; a dilute suspension of bacteria (1×10^5 cells/mL final concentration in the well) in 0.6 mM phosphate buffer was added to the well for a final volume of 5 mL. The plate was shaken on a platform shaker at room temperature. At specified times (4 hours and 24 hours), an aliquot was removed from the culture plate (0.1 mL, in triplicates), and serial dilutions ranging from 1 to 100 fold were made for enumeration of cells on trypticase soy agar (TSA) plates. The TSA plates were incubated for 20 hr at 37° C., and the number of colony forming units (CFU) per mL was determined.

Molecule	MIC P. aeruginosa 27853 (P. aeruginosa 27853)	MIC K. pneumoniae 700603 (K. pneumoniae 700603)	MIC E. coli 25922 Expt. #2 (E. coli ATCC 25922)	MIC (E. coli ATCC 25922)	MIC S. aureus 29213 (S. aureus 29213; 29213)	log reduction in E. coli CFU/mL (E. coli ATCC #25922)	MIC E. coli 25922 Expt. #1 (E. coli ATCC 25922)	MIC S. aureus 29213 (S. aureus 29213; ATCC 29213)
KGLKKLLKGLKKLLKL [SEQ ID NO:1, KGLKKLLKGLKKLLKL]	2 µg/mL	8 to 16 µg/mL	2 to 4 µg/mL	4 µg/mL	8 µg/mL	4.6 log		
CC(C)C[C@@H]1NC(=O)CNC(=O)[C@H](CCCCN)NC(=O)[C@H](CC(C)C)NC(=O)[C@H](CC(C)C)NC(=O)[C@H](CCCCN)NC(=O)[C@H](CCCCN)NC(=O)[C@H](CC(C)C)NC(=O)[C@@H](N)CSSC[C@@H](C(=O)O)NC(=O)[C@H](CC(C)C)NC(=O)[C@H](CCCCN)NC(=O)[C@H](CC(C)C)NC(=O)[C@H](CC(C)C)NC(=O)[C@H](CCCCN)NC(=O)[C@H](CCCCN)NC1=O [SEQ ID NO:38] (H-CLKKLLKGLKKLLKLC-OH; disulfide 1-16; N-terminus and C-terminus assumed)				32 µg/mL (≈ 17.4 µM)				
KGLKKLLKLLKKGLKL [SEQ ID NO:5, KGLKKLLKLLKKGLKL]	8 µg/mL	8 to 16 µg/mL	2 µg/mL				<=4* μg/mL	32+ μg/mL
KGLKKGLKLLKKLLKL [SEQ ID NO:2, KGLKKGLKLLKKLLKL]	8 µg/mL	4 to 8 µg/mL	2 µg/mL		64 to 128 µg/mL		<=4* μg/mL	
KGGKKLLKGLKKLLKL [SEQ ID NO:43, KGGKKLLKGLKKLLKL]	16 µg/mL	64 µg/mL	2 µg/mL		256 µg/mL		<=4* μg/mL	
KGLKKGLKGLKKLLKL [SEQ ID NO:40, KGLKKGLKGLKKLLKL]				256 µg/mL				
KGLKKLLKLGKKLLKL [SEQ ID NO:3, KGLKKLLKLGKKLLKL]	8 µg/mL	8 µg/mL	2 µg/mL		64 to 128 µg/mL		<=4* μg/mL	
KGLKKLGKLLKKLLKL [SEQ ID NO:42, KGLKKLGKLLKKLLKL]	8 to 16 µg/mL	4 to 8 µg/mL	2 µg/mL		64 µg/mL		<=4* μg/mL	
CC(=O)NCSC[C@H](NC(=O)[C@H](CC(C)C)NC(=O)[C@H](CCCCN)NC(=O)[C@H](CC(C)C)NC(=O)[C@H](CC(C)C)NC(=O)[C@H](CCCCN)NC(=O)[C@H](CCCCN)NC(=O)[C@H](CC(C)C)NC(=O)CNC(=O)[C@H](CCCCN)NC(=O)[C@H](CC(C)C)NC(=O)[C@H](CC(C)C)NC(=O)[C@H](CCCCN)NC(=O)[C@H](CCCCN)NC(=O)[C@H](CC(C)C)NC(=O)[C@@H](N)CSCNC(C)=O)C(=O)O [SEQ ID NO:25, CLKKLLKGLKKLLKLC] (H-C(Acm)LKKLLKGLKKLLKLC(Acm)-OH; N-terminus and C-terminus assumed)				8 µg/mL (≈ 4.03 µM)				
CC(=O)NCSC[C@H](NC(=O)[C@H](CC(C)C)NC(=O)[C@H](CCCCN)NC(=O)[C@H](CC(C)C)NC(=O)[C@H](CC(C)C)NC(=O)[C@H](CCCCN)NC(=O)[C@H](CCCCN)NC(=O)[C@H](CC(C)C)NC(=O)CNC(=O)[C@H](CCCCN)NC(=O)[C@H](CC(C)C)NC(=O)[C@H](CC(C)C)NC(=O)[C@H](CCCCN)NC(=O)[C@H](CCCCN)NC(=O)[C@H](CC(C)C)NC(=O)[C@H](CSCNC(C)=O)NC(=O)[C@@H](N)CCCCN)C(=O)O [compound 17, KC(Acm)LKKLLKGLKKLLKLC(Acm)] (H-KC(Acm)LKKLLKGLKKLLKLC(Acm)-OH; N-terminus and C-terminus assumed)				4 µg/mL (≈ 1.89 µM)				
CC(C)C[C@@H]1NC(=O)CNC(=O)[C@H](CCCCN)NC(=O)[C@H](CC(C)C)NC(=O)[C@H](CC(C)C)NC(=O)[C@H](CCCCN)NC(=O)[C@H](CCCCN)NC(=O)[C@H](CC(C)C)NC(=O)[C@@H](NC(=O)[C@@H](N)CCCCN)CSSC[C@@H](C(=O)O)NC(=O)[C@H](CC(C)C)NC(=O)[C@H](CCCCN)NC(=O)[C@H](CC(C)C)NC(=O)[C@H](CC(C)C)NC(=O)[C@H](CCCCN)NC(=O)[C@H](CCCCN)NC1=O [SEQ ID NO:31] (H-KCLKKLLKGLKKLLKLC-OH; disulfide 2-17; N-terminus and C-terminus assumed)				16 µg/mL (≈ 8.13 µM)				

Reference: patent US7550430B2, “Cationic antimicrobial peptides and compositions” (E.I. du Pont de Nemours and Company, priority 2003, dated 2009)
